Converted amounts (≈) assume the structure as drawn.
Key:
Assay type in all cases: cell-based
[1] = tested on: Escherichia coli (carbapenem-resistant clinical isolate; ATCC25922); test: MIC by micro broth dilution (CLSI), Escherichia coli; conditions: Escherichia coli; for MIC50 / MIC90: ATCC25922, Clinical strain; for MIC50: read-out: MIC50; for MIC90: read-out: MIC90; for MIC: Standard strain ATCC25922, read-out: MIC
Text: (§1) The test bacteria were one strain of clinically isolated carbapenem-resistant Escherichia coli, two strains of carbapenem-resistant Acinetobacter baumannii, two strains of methicillin-resistant Staphylococcus aureus, two strains of sensitive Staphylococcus aureus, and 7 strains of Klebsiella pneumoniae. Duplicate strains isolated from the same patient were eliminated. There were also […] quality control strains Escherichia coli ATCC25922, Acinetobacter baumannii ATCC19606, Staphylococcus aureus ATCC29213, Klebsiella pneumoniae ATCC BAA-1705, ATCC 43816, ATCC BAA-2472, ATCC-BAA-1898, ATCC-BAA-1899, NCTC 13440 and ATCC-BAA-2470. There were 24 strains in total.
(§2) According to the recommendations of relevant documents of the American Clinical and Laboratory Standards Institute (CLSI), the micro broth dilution method was used to determine the MIC of the compounds of the present invention against clinically isolated strains. • 3.1 Formulation of antibacterial drug: All the compounds of the present invention were dissolved in DMSO. The drug concentration range was 128 mg/L to 0.06 mg/L. • 3.2 Culture medium: The drug susceptibility test used cation adjusted Mueller-Hinton broth (CAMHB). • 3.3 Amount of inoculum: The test bacteria cultured overnight were adjusted to 0.5 McFarland turbidity by the direct colony suspension method, and diluted 100 folds, the final inoculum amount was 10^5 CFU/mL. • 3.4 Culture conditions: The test bacteria were cultured at 35±2° C. for 20 hours in air.
(§3) The drug susceptibility test results were interpretated by reference to CLSI 2019 M100 29th edition criteria.
(§4) The quality control strains of the drug susceptibility test were Escherichia coli ATCC 25922, Acinetobacter baumannii ATCC 19606, Staphylococcus aureus ATCC 29213, Klebsiella pneumoniae ATCC BAA-1705, ATCC 43816, ATCC BAA-2472, ATCC-BAA-1898, ATCC-BAA-1899, NCTC 13440 and ATCC-BAA-2470.
(§5) The results of drug susceptibility test were statistically analyzed by WHONET software (version 5.6).

[2] = tested on: Acinetobacter baumannii (carbapenem-resistant clinical isolates; ATCC19606); test: MIC by micro broth dilution (CLSI), Acinetobacter baumannii; conditions: Acinetobacter baumannii; for MIC50 / MIC90: ATCC19606, Clinical strain; for MIC50: read-out: MIC50; for MIC90: read-out: MIC90; for MIC: Standard strain ATCC19606, read-out: MIC
Text: as §1, §2, §3, §4, §5

[3] = tested on: Staphylococcus aureus (methicillin-resistant and sensitive clinical isolates; ATCC29213); test: MIC by micro broth dilution (CLSI), Staphylococcus aureus; conditions: for MIC50 / MIC90: Clinical strain; for MIC50: read-out: MIC50; for MIC90: read-out: MIC90; for MIC: Standard strain ATCC29213, read-out: MIC
Text: as §1, §2, §3, §4, §5

SMILES	MIC50 [1] [µg/mL]	MIC90 [1] [µg/mL]	MIC [1] [µg/mL]	MIC50 [2] [µg/mL]	MIC90 [2] [µg/mL]	MIC [2] [µg/mL]	MIC50 [3] [µg/mL]	MIC90 [3] [µg/mL]	MIC [3] [µg/mL]
O=[N+]([O-])c1cc(CN2CCCC2)c2cccnc2c1O [Example 93, 7-nitro-5-(pyrrolidin-1-ylmethyl)quinolin-8-ol acetate]	> 128	> 128	> 128	> 128	> 128	> 128	> 128	> 128	> 128
CCN(CC)Cc1cc([N+](=O)[O-])c(O)c2ncccc12 [Example 94, 5-((diethylamino)methyl)-7-nitroquinolin-8-ol]	128 (≈ 465 µM)	128 (≈ 465 µM)	64 (≈ 232 µM)	64 (≈ 232 µM)	> 128	128 (≈ 465 µM)	> 128	> 128	> 128
O=[N+]([O-])c1ccc2cc(CN3CCCCC3)cnc2c1O [Example 95, 7-nitro-3-(piperidin-1-ylmethyl)quinolin-8-ol]	64 (≈ 223 µM)	64 (≈ 223 µM)	64 (≈ 223 µM)	64 (≈ 223 µM)	64 (≈ 223 µM)	32 (≈ 111 µM)	64 (≈ 223 µM)	64 (≈ 223 µM)	64 (≈ 223 µM)
O=[N+]([O-])c1cc(Cl)c2cc(CN3CCOCC3)cnc2c1O [Example 96, 5-chloro-3-(morpholinomethyl)-7-nitroquinolin-8-ol]	> 128	> 128	> 128	> 128	> 128	> 128	32 (≈ 98.8 µM)	64 (≈ 198 µM)	32 (≈ 98.8 µM)
O=[N+]([O-])c1ccc2cc(CN3CCOCC3)cnc2c1O [Example 97, 3-(morpholinomethyl)-7-nitroquinolin-8-ol]	> 128	> 128	> 128	128 (≈ 442 µM)	> 128	128 (≈ 442 µM)	128 (≈ 442 µM)	128 (≈ 442 µM)	128 (≈ 442 µM)
CCN(CC)Cc1cnc2c(O)c([N+](=O)[O-])ccc2c1 [Example 98, 3-((diethylamino)methyl)-7-nitroquinolin-8-ol]	128 (≈ 465 µM)	128 (≈ 465 µM)	64 (≈ 232 µM)	64 (≈ 232 µM)	128 (≈ 465 µM)	64 (≈ 232 µM)	32 (≈ 116 µM)	64 (≈ 232 µM)	64 (≈ 232 µM)
CNCc1cc([N+](=O)[O-])c(O)c2ncccc12.Cl.Cl [Example 99, 5-((methylamino)methyl)-7-nitroquinolin-8-ol dihydrochloride]	> 128	> 128	> 128	> 128	> 128	128	> 128	> 128	> 128
O=C1CN(Cc2cnc3c(O)c([N+](=O)[O-])ccc3c2)CCN1 [Example 100, 4-((8-hydroxy-7-nitroquinolin-3-yl)methyl)piperazin-2-one]	> 128	> 128	> 128	> 128	> 128	> 128	> 128	> 128	> 128
Cl.Cl.Cl.O=[N+]([O-])c1cc(CN2CCNCC2)c2cccnc2c1O [Example 101, 7-nitro-5-(piperazin-1-ylmethyl)quinolin-8-ol trihydrochloride]	> 128	> 128	> 128	> 128	> 128	> 128	> 128	> 128	> 128
Cl.Cl.Cl.O=[N+]([O-])c1ccc2cc(CN3CCNCC3)cnc2c1O [Example 102, 7-nitro-3-(piperazin-1-ylmethyl)quinolin-8-ol trihydrochloride]	> 128	> 128	128	> 128	> 128	> 128	> 128	> 128	> 128
CCNCc1cc([N+](=O)[O-])c(O)c2ncccc12.Cl.Cl [Example 103, 5-((ethylamino)methyl)-7-nitroquinolin-8-ol dihydrochloride]	> 128	> 128	> 128	> 128	> 128	> 128	> 128	> 128	> 128
CN(C)Cc1cc([N+](=O)[O-])c(O)c2nccc(C(F)(F)F)c12 [Example 104, 5-((dimethylamino)methyl)-7-nitro-4-(trifluoromethyl)quinolin-8-ol]	> 128	> 128	128 (≈ 406 µM)	> 128	> 128	> 128	> 128	> 128	> 128
O=[N+]([O-])c1c(F)c(Cl)c2cccnc2c1O [Example 110, 5-chloro-6-fluoro-7-nitroquinolin-8-ol]	16 (≈ 66 µM)	64 (≈ 264 µM)	8 (≈ 33 µM)	8 (≈ 33 µM)	8 (≈ 33 µM)	8 (≈ 33 µM)	2 (≈ 8.24 µM)	2 (≈ 8.24 µM)	4 (≈ 16.5 µM)
O=[N+]([O-])c1cc(Cl)c2c(N3CCCC(c4ccccc4)C3)ccnc2c1O (stereo not drawn) [Example 111, 5-chloro-7-nitro-4-(3-phenylpiperidin-1-yl)quinolin-8-ol]	> 128	> 128	> 128	> 128	> 128	> 128	> 128	> 128	> 128
O=[N+]([O-])c1ccc2cc(C3CC3)cnc2c1O [Example 112, 3-cyclopropyl-7-nitroquinolin-8-ol]	64 (≈ 278 µM)	128 (≈ 556 µM)	32 (≈ 139 µM)	8 (≈ 34.7 µM)	32 (≈ 139 µM)	32 (≈ 139 µM)	2 (≈ 8.69 µM)	4 (≈ 17.4 µM)	4 (≈ 17.4 µM)
[2H]c1ccc2c(Cl)cc([N+](=O)[O-])c(O)c2n1 [Example 113, 5-chloro-7-nitroquinolin-2-d-8-ol]	16 (≈ 70.9 µM)	16 (≈ 70.9 µM)	8 (≈ 35.5 µM)	8 (≈ 35.5 µM)	16 (≈ 70.9 µM)	8 (≈ 35.5 µM)	4 (≈ 17.7 µM)	4 (≈ 17.7 µM)	4 (≈ 17.7 µM)
O=[N+]([O-])c1c(Br)c(Cl)c2cccnc2c1O [Example 114, 6-bromo-5-chloro-7-nitroquinolin-8-ol]	64 (≈ 211 µM)	64 (≈ 211 µM)	16 (≈ 52.7 µM)	4 (≈ 13.2 µM)	8 (≈ 26.4 µM)	8 (≈ 26.4 µM)	2 (≈ 6.59 µM)	2 (≈ 6.59 µM)	2 (≈ 6.59 µM)
O=[N+]([O-])c1c(Cl)c(Cl)c2cccnc2c1O [Example 115, 5,6-dichloro-7-nitroquinolin-8-ol]	64 (≈ 247 µM)	64 (≈ 247 µM)	16 (≈ 61.8 µM)	4 (≈ 15.4 µM)	4 (≈ 15.4 µM)	4 (≈ 15.4 µM)	1 (≈ 3.86 µM)	1 (≈ 3.86 µM)	2 (≈ 7.72 µM)
[2H]c1ccc2ccc([N+](=O)[O-])c(O)c2n1 [Example 116, 7-nitroquinolin-2-d-8-ol]	16 (≈ 83.7 µM)	16 (≈ 83.7 µM)	8 (≈ 41.8 µM)	4 (≈ 20.9 µM)	4 (≈ 20.9 µM)	4 (≈ 20.9 µM)	4 (≈ 20.9 µM)	8 (≈ 41.8 µM)	4 (≈ 20.9 µM)
[2H]c1cc2cccnc2c(O)c1[N+](=O)[O-] [Example 117, 7-nitroquinolin-6-d-8-ol]	8 (≈ 41.8 µM)	16 (≈ 83.7 µM)	8 (≈ 41.8 µM)	4 (≈ 20.9 µM)	4 (≈ 20.9 µM)	4 (≈ 20.9 µM)	4 (≈ 20.9 µM)	8 (≈ 41.8 µM)	4 (≈ 20.9 µM)
O=[N+]([O-])c1cc(Cl)c2c(N3CCCC(F)(F)C3)ccnc2c1O [Example 118, 5-chloro-4-(3,3-difluoropiperidin-1-yl)-7-nitroquinolin-8-ol]	> 128	> 128	> 128	128 (≈ 372 µM)	> 128	> 128	8 (≈ 23.3 µM)	128 (≈ 372 µM)	128 (≈ 372 µM)
